Molecules are shown by their SMILES. Read-outs that look alike come from different tables or passages of the source.

The target in one data set is T1, sucrase (Rattus norvegicus, UniProt P23739).
T1 construct: Membrane homogenates were prepared by extensive washing and homogenization; from tissue; host or cells: rat intestinal membrane homogenate
Put plainly: In vitro sucrase activity, intestinal membrane preparation. Format: biochemical.

For data set [1] the following is noted: many individuals; cited from earlier work.
Another data set addresses T2, debranching enzyme (Homo sapiens, UniProt P35573).
T2 construct: As enzyme source erythrocytes are used since they contain no other enzymes that can degrade glycogen or limit dextrin; from tissue; host or cells: erythrocyte homogenate
Put plainly: Debranching enzyme activity, glucose release from limit dextrin, erythrocyte homogenate. Format: biochemical. As to conditions: read-out: IC50 value for inhibition of Debranching enzyme.

For data set [2], the system named is cultured adipocytes and muscle cells. Kind of data set: Insulin signaling in cultured adipocytes and muscle cells (GLUT4, deoxyglucose uptake). Format: cell-based. The source says:
Initial experiments already confirmed this effect.

Data set [3] relates to C57BL/6J mice (ob-/-, db-/-, +/+). Put plainly: Oral treatment of obese, diabetes and normal C57BL/6J mice: glucose and water intake. Format: in vivo. The method, then: Plasma glucose, water intake and food intake were monitored.
Mice (obese-lep^ob (C57B1/6)laHsd-Lep^ob); diabetes-lepr^db (C57B1/6KsOlaHsd—Lepr^db); wildtype (C57B1/6J OlaHsd) and wild type FVB (FVB/NHanHsd) were obtained from Harlan Nederland. Animals were fed with AM-II diet with or without N-(5-adamantane-1-yl-methoxy-pentyl)deoxynojirimycin (Hope Farms Netherlands). Mice were kept in groups of five in each cage. Water consumption and food intake were determined three times weekly per cage. Body weight of individual animals was determined three times weekly. Glucose in plasma was determined with the GOD-PAP method (Merck), and glucose in urine was determined using […] test strips (Roche).

Data set [4] in a line: Tolerability in animal studies. Type of data set: in vivo.
The nature of data set [5]: Pharmacological features (bioavailability, metabolism). As to conditions: in vivo.
In another data set the target is T3, lactase (Rattus norvegicus, UniProt Q02401).
T3 construct: Membrane homogenates were prepared by extensive washing and homogenization; from tissue; host or cells: rat intestinal membrane homogenate
T3 sequence (Q02401 868-1928): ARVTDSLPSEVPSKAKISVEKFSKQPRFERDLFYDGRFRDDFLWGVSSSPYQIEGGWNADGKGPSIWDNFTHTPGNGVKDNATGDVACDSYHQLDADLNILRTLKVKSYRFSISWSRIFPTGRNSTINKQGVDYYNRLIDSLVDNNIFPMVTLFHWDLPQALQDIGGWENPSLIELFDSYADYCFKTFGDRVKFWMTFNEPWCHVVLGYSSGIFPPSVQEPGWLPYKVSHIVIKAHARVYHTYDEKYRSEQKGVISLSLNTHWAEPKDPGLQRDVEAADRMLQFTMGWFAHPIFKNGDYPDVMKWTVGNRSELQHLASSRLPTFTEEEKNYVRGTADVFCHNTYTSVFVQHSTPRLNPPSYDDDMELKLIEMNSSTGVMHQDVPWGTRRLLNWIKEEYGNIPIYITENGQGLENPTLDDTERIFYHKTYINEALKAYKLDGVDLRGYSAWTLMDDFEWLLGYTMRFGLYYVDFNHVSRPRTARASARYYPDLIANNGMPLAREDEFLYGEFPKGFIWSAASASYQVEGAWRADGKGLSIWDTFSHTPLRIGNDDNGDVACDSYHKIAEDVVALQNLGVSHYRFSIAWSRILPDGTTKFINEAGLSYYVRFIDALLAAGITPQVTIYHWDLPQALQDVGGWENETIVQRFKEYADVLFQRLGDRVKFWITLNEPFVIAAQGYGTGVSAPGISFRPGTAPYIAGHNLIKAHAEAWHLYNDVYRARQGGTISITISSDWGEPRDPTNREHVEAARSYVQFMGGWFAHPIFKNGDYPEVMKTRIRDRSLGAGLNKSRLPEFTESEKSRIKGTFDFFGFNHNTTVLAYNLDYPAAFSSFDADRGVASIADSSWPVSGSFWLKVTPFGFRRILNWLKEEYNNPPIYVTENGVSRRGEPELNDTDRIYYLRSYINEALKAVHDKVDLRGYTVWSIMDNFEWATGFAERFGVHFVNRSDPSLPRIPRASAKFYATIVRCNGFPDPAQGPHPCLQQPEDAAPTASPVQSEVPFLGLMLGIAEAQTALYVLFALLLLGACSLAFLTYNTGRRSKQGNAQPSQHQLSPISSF
Put plainly: In vitro lactase activity, intestinal membrane preparation. The following applies: rat intestinal membranes; read-out: IC50 value for inhibition of Lactase. Type of data set: biochemical.

In a further data set the test system is surface GM3. Put plainly: Surface GM3 expression by FACS after 3 days exposure of cells. Format: cell-based. As to conditions: 72 h, cells exposed for 3 days, read-out: IC50 value for surface GM3 reduction.
A further data set concerns FVB and C57BL/6J mice. Put plainly: Tissue (glyco)sphingolipid levels in orally treated FVB and C57BL/6J mice (HPLC, TLC).
A short description of data set [6]: Plasma level and tissue penetration after oral dosing. Type of data set: in vivo, mice.
The target in data set [7] is glycan trimming α-glucosidase. As to conditions: cited from earlier work.
Setting [8] is: intestinal sucrase, read-out: IC50 value for sucrase.
The mark [9] stands for this setting: rat intestinal membranes, read-out: IC50 value for inhibition of Sucrase.
[10] abbreviates: obese and diabetes mice, administration by food, dose-dependent.

T1 sequence (P23739 1014-1841 limits assumed): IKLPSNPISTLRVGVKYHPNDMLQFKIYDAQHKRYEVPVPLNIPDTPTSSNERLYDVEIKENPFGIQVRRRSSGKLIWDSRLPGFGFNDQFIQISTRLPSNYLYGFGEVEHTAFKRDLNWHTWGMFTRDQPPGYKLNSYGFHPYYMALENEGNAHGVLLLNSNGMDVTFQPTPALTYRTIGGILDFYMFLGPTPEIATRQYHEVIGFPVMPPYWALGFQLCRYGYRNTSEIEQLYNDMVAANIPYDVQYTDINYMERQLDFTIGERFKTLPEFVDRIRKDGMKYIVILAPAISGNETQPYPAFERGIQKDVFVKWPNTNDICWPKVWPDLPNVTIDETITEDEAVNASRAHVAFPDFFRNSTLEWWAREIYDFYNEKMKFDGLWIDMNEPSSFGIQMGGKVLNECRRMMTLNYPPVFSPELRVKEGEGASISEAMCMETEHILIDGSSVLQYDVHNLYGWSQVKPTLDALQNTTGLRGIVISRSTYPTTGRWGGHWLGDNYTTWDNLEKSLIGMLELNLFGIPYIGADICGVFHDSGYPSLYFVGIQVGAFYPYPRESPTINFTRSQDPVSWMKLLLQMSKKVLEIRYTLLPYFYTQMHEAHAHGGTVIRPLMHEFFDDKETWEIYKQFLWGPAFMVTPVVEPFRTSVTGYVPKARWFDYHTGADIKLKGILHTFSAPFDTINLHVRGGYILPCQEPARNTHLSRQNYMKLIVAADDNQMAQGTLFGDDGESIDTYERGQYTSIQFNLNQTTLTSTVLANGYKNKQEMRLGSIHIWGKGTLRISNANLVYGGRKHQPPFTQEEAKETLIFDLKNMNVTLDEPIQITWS
T1 sequence (P23739 1-1013 partner limits assumed): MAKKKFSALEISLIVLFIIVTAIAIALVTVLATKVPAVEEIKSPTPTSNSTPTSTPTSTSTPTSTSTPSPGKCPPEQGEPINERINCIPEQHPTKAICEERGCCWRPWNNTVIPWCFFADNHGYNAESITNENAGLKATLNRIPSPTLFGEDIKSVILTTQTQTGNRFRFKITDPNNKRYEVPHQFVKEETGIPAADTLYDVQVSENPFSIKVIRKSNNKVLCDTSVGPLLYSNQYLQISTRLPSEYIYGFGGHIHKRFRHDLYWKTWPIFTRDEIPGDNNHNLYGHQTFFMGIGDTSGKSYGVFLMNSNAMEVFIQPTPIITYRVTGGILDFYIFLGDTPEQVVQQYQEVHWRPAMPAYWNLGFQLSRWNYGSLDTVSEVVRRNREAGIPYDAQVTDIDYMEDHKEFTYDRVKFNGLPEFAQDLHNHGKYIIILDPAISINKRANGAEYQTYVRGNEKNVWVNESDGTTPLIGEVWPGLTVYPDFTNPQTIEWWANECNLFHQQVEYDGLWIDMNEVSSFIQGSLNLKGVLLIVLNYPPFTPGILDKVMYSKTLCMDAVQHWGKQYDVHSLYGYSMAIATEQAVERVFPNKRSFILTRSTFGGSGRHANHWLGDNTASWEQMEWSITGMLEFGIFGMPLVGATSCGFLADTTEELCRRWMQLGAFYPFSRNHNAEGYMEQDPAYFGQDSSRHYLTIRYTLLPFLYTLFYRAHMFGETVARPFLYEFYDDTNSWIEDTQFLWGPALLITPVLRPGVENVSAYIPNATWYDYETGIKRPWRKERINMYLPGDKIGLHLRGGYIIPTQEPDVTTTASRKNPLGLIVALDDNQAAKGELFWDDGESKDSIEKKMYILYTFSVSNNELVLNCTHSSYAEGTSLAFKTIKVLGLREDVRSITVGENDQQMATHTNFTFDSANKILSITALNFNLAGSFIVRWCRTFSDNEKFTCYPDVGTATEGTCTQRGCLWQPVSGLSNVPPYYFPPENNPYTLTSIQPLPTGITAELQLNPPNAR
T2 sequence (P35573 whole entry): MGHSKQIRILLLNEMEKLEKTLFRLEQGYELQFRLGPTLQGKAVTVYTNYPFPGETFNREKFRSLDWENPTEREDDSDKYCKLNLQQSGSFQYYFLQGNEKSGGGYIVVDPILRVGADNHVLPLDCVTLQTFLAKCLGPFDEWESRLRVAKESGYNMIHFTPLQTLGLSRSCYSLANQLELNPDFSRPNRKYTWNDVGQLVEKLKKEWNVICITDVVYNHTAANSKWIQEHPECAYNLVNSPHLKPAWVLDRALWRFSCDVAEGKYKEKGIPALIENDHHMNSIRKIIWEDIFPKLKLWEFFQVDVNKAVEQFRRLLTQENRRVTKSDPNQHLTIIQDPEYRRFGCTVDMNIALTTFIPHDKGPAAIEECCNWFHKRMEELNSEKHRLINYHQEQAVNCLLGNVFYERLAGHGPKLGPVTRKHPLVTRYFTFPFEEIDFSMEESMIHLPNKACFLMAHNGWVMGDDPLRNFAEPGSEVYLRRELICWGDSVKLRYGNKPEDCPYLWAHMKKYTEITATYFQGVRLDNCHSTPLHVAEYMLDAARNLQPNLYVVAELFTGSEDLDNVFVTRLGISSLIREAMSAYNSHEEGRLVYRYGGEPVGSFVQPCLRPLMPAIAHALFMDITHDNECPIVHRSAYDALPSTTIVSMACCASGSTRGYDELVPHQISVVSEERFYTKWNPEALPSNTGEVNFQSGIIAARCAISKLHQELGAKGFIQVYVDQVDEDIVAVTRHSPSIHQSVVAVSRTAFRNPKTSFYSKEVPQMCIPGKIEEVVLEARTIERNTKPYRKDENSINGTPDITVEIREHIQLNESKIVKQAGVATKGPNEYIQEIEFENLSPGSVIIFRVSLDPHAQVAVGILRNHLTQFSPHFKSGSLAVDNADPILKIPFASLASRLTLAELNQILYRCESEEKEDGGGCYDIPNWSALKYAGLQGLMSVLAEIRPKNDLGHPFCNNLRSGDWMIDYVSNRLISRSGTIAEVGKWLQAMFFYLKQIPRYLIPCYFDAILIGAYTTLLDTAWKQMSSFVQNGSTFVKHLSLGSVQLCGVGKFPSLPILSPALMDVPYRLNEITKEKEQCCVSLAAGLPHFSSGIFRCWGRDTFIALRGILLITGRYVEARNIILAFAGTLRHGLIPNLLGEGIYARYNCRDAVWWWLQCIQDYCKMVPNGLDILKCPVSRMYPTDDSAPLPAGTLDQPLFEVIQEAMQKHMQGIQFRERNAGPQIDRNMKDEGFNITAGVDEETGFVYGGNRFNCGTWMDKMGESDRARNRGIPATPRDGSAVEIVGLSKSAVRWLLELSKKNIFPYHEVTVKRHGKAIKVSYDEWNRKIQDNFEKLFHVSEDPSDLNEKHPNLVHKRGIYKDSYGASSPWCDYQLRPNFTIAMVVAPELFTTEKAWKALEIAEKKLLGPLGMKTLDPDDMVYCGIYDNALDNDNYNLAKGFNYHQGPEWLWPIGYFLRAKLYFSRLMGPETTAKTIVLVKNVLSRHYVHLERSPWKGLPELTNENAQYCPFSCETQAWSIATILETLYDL

For `OCCN1C[C@H](O)[C@@H](O)[C@H](O)[C@H]1CO` [N-hydroxyethyl-deoxynojirimycin], the IC50 is < 5000 µM on sucrase (setting [8]) and 100 µM at sucrase (setting [9]). For the same molecule, the “tolerability (intestinal complaints)” value in [1] was “not very well tolerated”.

In the case of `OC[C@@H]1[C@@H](O)[C@H](O)[C@@H](O)CN1CCCCCOCC12CC3CC(CC(C3)C1)C2` [AMP-DNM, N-(5-adamantane-1-yl-methoxy-pentyl)deoxynojirimycin], the IC50 is 4500 µM on sucrase (setting [8]), > 500 µM on debranching enzyme, 18000 µM at lactase and ~0.25 µM in the data set with surface GM3. The “surface expression of GLUT4” value in [2] (adipocytes) is “increased”. The deoxyglucose uptake result in data set [2] (cultured adipocytes and muscle cells) is recorded as “increased”. In addition, the urinary glucose result in data set [3] (after 2 weeks treatment, particularly ob-/ob- mice at highest dose) is given as “major reduction”. Besides, the blood glucose result in data set [3] (normal mice) is “small reduction”; in data set [3] (setting [10]), “reductions”. In addition, in data set [3] (setting [10]), the water intake result is “reductions”. Further, the “overt pathology in animal studies” value in [4] is given as “does not result in any overt pathology”. In data set [4], the “tolerability in animal studies” value was “well tolerated”. Further, in [5], the metabolism result is “lack of metabolism”. Besides, the oral bioavailability result in data set [5] (po) was “good oral bioavailability”. For the same molecule, the “brain gangliosides or sulfatide” value in the data set on FVB and C57BL/6J mice (TLC, brain) is “No changes”. The “liver GM3” value with FVB and C57BL/6J mice (TLC, liver, 2 wks 100 mg/kg) is “marked reduction”. Further, the “muscle GM3” value in the data set on FVB and C57BL/6J mice (TLC, muscle) is recorded as “reduction”. Moreover, the brain galactosylceramide concentration entry with FVB and C57BL/6J mice (brain, 100 mg/kg oral) was “No changes”. Also, in the data set with FVB and C57BL/6J mice (liver, 100 mg/kg oral), the “liver glucosylceramide reduced by” value is 80%. Further, in the data set with FVB and C57BL/6J mice (liver, muscle and brain, 100 mg/kg oral), the ceramide concentration entry is “No changes”. Moreover, in the data set on FVB and C57BL/6J mice (muscle, 100 mg/kg oral), the “muscle glucosylceramide reduced by” value was 50%. Moreover, the concentration at 4 weeks in [6] (mouse, plasma, oral, 4 weeks 100 mg/kg orally, enzymatic method, read-out: plasma levels) is ~1000 nM. For the same molecule, in [6] (oral administration), the brain penetration result is “poorly penetrates in the brain”.

On to `CCCCN1C[C@H](O)[C@@H](O)[C@H](O)[C@H]1CO` [N-butyl-deoxynojirimycin], for which the IC50 at sucrase (setting [9]) worked out at 500 µM. Moreover, the “Ki glycan trimming α-glucosidase in vitro” value in data set [7] is given as “sub-μM”.

On to `C[C@H]1O[C@H](O[C@H]2[C@H](O)[C@@H](O)[C@@H](O[C@H]3[C@H](O)[C@@H](O)C(O)O[C@@H]3CO)O[C@@H]2CO)[C@H](O)[C@@H](O)[C@@H]1N[C@H]1C=C(CO)[C@@H](O)[C@H](O)[C@H]1O` (some centres unmarked) [Acarbose], for which the “tolerability (intestinal complaints)” value in [1] is “not very well tolerated”.

Source of the values: patent publication US7662838B2, “Use of a deoxynojirimycin derivative or a pharmaceutically salt thereof” (Genzyme Corporation, priority 2003, dated 2010).
